EP3431468B1, “USE OF ADIPONECTIN RECEPTOR AGONISTS IN TREATING DEPRESSION, ANXIETY AND NEUROINFLAMMATION” (CENTRE NATIONAL DE LA RECHERCHE SCIENTIFIQUE, priority 2017, dated 2019)

Legend:
wt mice = test: Open-field test (OF), locomotor activity; type: in vivo; settings: chronic ip 1mg/kg for twenty consecutive days, 10 minutes recording
Description: All behavioral testing were conducted during the light phase (between 09:00 and 14:00 am) in compliance with the Institutional Animal Care and Use Committee of the University of Nice-Sophia Antipolis (permission number 010344.01 from the French "Ministère de l'Enseignement Supérieur et de la Recherche" granted to Dr. Joëlle Chabry). • Forced Swimming test (FST) - Mice were placed an inescapable transparent tank (20cm diameter, 30cm deep) filled with water (23°C ± 0.5) for six minutes as previously described by Porsolt et al. (1977). The immobility duration, as an index of the resignation, was timed during the last four minutes of the test. A mouse was considered immobile when it remained floating with only slight movements to keep its head out of the water. • Open-field test (OF) - Locomotor activity was determined using open-field (OF) activity. […] Twenty-four hours later, the latency to fall, an index of the motor coordination, was recorded on accelerating rod (from 10 to 40 rpm/min). • Light & Dark test (L&D) - The L&D place preference test was used to assess the anxiety-like behavior. […] To initiate testing, mice were placed into the light side and activity was recorded for 5 minutes. […] The amount of water and 1% sucrose solution was measured twenty-four hours later. […]

[1] = Weight, food and water intake under chronic treatment; type: in vivo, mice; settings: chronic AdipoRon treatment
Description: Three well-established mouse models of depression-like behavior have been used in the present study namely i- the long-term corticosterone treatment in the drinking water (David, Samuels et al. 2009), ii- the peripheral administration of LPS (O'Connor, Lawson et al. 2009) iii- the ApN^-/- mice (Liu, Guo et al. 2012). For chronic AdipoRon treatment, the experimental protocol was as followed: • i- Five weeks old male mice (five/cage) received corticosterone (35mg/L dissolved in tap water containing 4 g/L CD) or vehicle alone ad libitum for during 7 consecutive weeks (David, Samuels et al. 2009). Corticosterone and vehicle solutions were changed every 3 days to prevent possible degradation. Additionally, during the last three weeks of corticosterone treatment, mice were daily intraperitoneally (ip) injected with AdipoRon (1mg/kg in 2.5% DMSO) or vehicle alone. • ii- Eight weeks old male mice daily ip injected with AdipoRon or vehicle as described above for twenty consecutive days. One day prior behavioral testing, mice were injected ip with LPS (0.83 mg/kg) or saline solution; the LPS dose was selected on the basis of its ability to induce the full spectrum of the acute sickness and depressive-like behaviors (Lestage, Verrier et al. 2002).

O=C(COc1ccc(C(=O)c2ccccc2)cc1)NC1CCN(Cc2ccccc2)CC1 [AdipoRon, 2-(4-Benzoylphenoxy)-N-[1-(phenylmethyl)-4-piperidinyl]-acetamide]
did not significantly modify: mean speed in the OF test (wt mice) | total distance traveled in the OF test (wt mice) | food and water intake [1] | weight of mice [1]
